In the NIST ThermoML archive (doi:10.1021/je060271a):

Conditions: 283.15 K, Liquid, Vibrating tube method

CCCCCC(=O)OCC(COC(=O)CCCCC)(COC(=O)CCCCC)COC(=O)CCCCC [pentaerythritol tetrahexanoate]
Conditions | mass density [kg/m3]
25591 kPa | 1018.3
25610 kPa | 1018.3
25634 kPa | 1018.4
25653 kPa | 1018.5
25672 kPa | 1018.4
25696 kPa | 1018.4
25716 kPa | 1018.4
25738 kPa | 1018.5
25757 kPa | 1018.5
25774 kPa | 1018.5
25793 kPa | 1018.4
25815 kPa | 1018.4
25832 kPa | 1018.4
25851 kPa | 1018.4
25872 kPa | 1018.5
25890 kPa | 1018.4
25912 kPa | 1018.6
25930 kPa | 1018.7
25948 kPa | 1018.5
25966 kPa | 1018.5
25986 kPa | 1018.5
26002 kPa | 1018.5
26022 kPa | 1018.6
26039 kPa | 1018.6
26056 kPa | 1018.6
26075 kPa | 1018.7
26091 kPa | 1018.6
26108 kPa | 1018.7
26127 kPa | 1018.6
26143 kPa | 1018.8
26160 kPa | 1018.6
26180 kPa | 1018.7
26196 kPa | 1018.6
26213 kPa | 1018.6
26233 kPa | 1018.7
26249 kPa | 1018.7
26266 kPa | 1018.8
26287 kPa | 1018.8
26303 kPa | 1018.7
26320 kPa | 1018.8
26337 kPa | 1018.8
26357 kPa | 1018.7
26374 kPa | 1018.7
26394 kPa | 1018.6
26410 kPa | 1018.8
26428 kPa | 1018.7
26448 kPa | 1018.9
26465 kPa | 1018.8
26483 kPa | 1018.7
26500 kPa | 1018.8
26521 kPa | 1018.9
26538 kPa | 1018.8
26559 kPa | 1018.9
26576 kPa | 1018.9
26593 kPa | 1018.8
26609 kPa | 1018.8
26629 kPa | 1018.9
26645 kPa | 1018.9
26661 kPa | 1019
26680 kPa | 1018.9
26696 kPa | 1018.9
26713 kPa | 1018.9
26730 kPa | 1018.9
26746 kPa | 1018.9
26766 kPa | 1019
26782 kPa | 1019
26798 kPa | 1019
26818 kPa | 1019
26834 kPa | 1019
26850 kPa | 1018.9
26870 kPa | 1019
26886 kPa | 1019
26902 kPa | 1019
26957 kPa | 1019.1
26974 kPa | 1019
26993 kPa | 1019.2
27010 kPa | 1019.1
27026 kPa | 1019
27042 kPa | 1019.2
27063 kPa | 1019.1
27080 kPa | 1019.2
27097 kPa | 1019.1
27117 kPa | 1019
27134 kPa | 1019.1
27155 kPa | 1019.2
27172 kPa | 1019.2
27188 kPa | 1019.2
27204 kPa | 1019.3
27222 kPa | 1019.2
27238 kPa | 1019.2
27253 kPa | 1019.2
27272 kPa | 1019.2
27288 kPa | 1019.3
27306 kPa | 1019.2
27322 kPa | 1019.4
27338 kPa | 1019.3
27354 kPa | 1019.3
27373 kPa | 1019.2
27388 kPa | 1019.2
27404 kPa | 1019.3
27423 kPa | 1019.3
27439 kPa | 1019.3
27458 kPa | 1019.4
27474 kPa | 1019.3
27489 kPa | 1019.4
27505 kPa | 1019.3
27524 kPa | 1019.4
27540 kPa | 1019.3
27560 kPa | 1019.3
27576 kPa | 1019.3
27592 kPa | 1019.4
27611 kPa | 1019.4
27627 kPa | 1019.3
27644 kPa | 1019.4
27660 kPa | 1019.5
27679 kPa | 1019.5
27696 kPa | 1019.4
27712 kPa | 1019.5
27732 kPa | 1019.4
27748 kPa | 1019.5
27764 kPa | 1019.6
27784 kPa | 1019.5
27800 kPa | 1019.4
27817 kPa | 1019.5
27837 kPa | 1019.5
27853 kPa | 1019.4
27869 kPa | 1019.5
27889 kPa | 1019.6
27906 kPa | 1019.6
27922 kPa | 1019.7
27942 kPa | 1019.6
27959 kPa | 1019.6
27976 kPa | 1019.5
27996 kPa | 1019.7
28012 kPa | 1019.5
28029 kPa | 1019.6
28046 kPa | 1019.7
28066 kPa | 1019.7
28083 kPa | 1019.7
28100 kPa | 1019.7
28120 kPa | 1019.6
28136 kPa | 1019.6
28153 kPa | 1019.7
28170 kPa | 1019.8
28190 kPa | 1019.8
28207 kPa | 1019.9
28225 kPa | 1019.7
28245 kPa | 1019.7
28262 kPa | 1019.7
28280 kPa | 1019.8
28297 kPa | 1019.7
28314 kPa | 1019.7
28334 kPa | 1019.8
28351 kPa | 1019.7
28371 kPa | 1019.8
28388 kPa | 1019.7
28405 kPa | 1019.9
28422 kPa | 1019.7
28443 kPa | 1019.8
28460 kPa | 1019.8
28478 kPa | 1019.8
28500 kPa | 1019.8
28517 kPa | 1019.8
28535 kPa | 1019.9
28552 kPa | 1019.9
28570 kPa | 1019.9
28591 kPa | 1019.9
28608 kPa | 1020
28629 kPa | 1019.9
28646 kPa | 1019.9
28664 kPa | 1019.9
28686 kPa | 1019.9
28703 kPa | 1020
28722 kPa | 1019.9
28744 kPa | 1019.9
28763 kPa | 1019.9
28781 kPa | 1019.9
28800 kPa | 1020
28815 kPa | 1020.1
28830 kPa | 1020.1
28848 kPa | 1020
28863 kPa | 1020
28878 kPa | 1020.2
28896 kPa | 1020
28911 kPa | 1020
28926 kPa | 1020
28944 kPa | 1020.1
28958 kPa | 1020.1
28973 kPa | 1020
28990 kPa | 1020.2
29004 kPa | 1020.2
29018 kPa | 1020.1
29035 kPa | 1020
29050 kPa | 1020.2
29064 kPa | 1020.1
29081 kPa | 1020.1
29096 kPa | 1020.3
29110 kPa | 1020.2
29127 kPa | 1020.2
29142 kPa | 1020.1
29156 kPa | 1020.1
29171 kPa | 1020.1
29188 kPa | 1020.2
29202 kPa | 1020.1
29219 kPa | 1020.3
29234 kPa | 1020.3
29248 kPa | 1020.3
29263 kPa | 1020.3
29280 kPa | 1020.2
29295 kPa | 1020.3
29313 kPa | 1020.3
29327 kPa | 1020.3
29342 kPa | 1020.3
29357 kPa | 1020.3
29375 kPa | 1020.3
29389 kPa | 1020.4
29407 kPa | 1020.3
29422 kPa | 1020.4
29436 kPa | 1020.2
29451 kPa | 1020.4
29469 kPa | 1020.3
29484 kPa | 1020.4
29499 kPa | 1020.3
29516 kPa | 1020.3
29531 kPa | 1020.5
29547 kPa | 1020.3
29564 kPa | 1020.4
29579 kPa | 1020.4
29594 kPa | 1020.4
29609 kPa | 1020.4
29627 kPa | 1020.4
29642 kPa | 1020.5
29660 kPa | 1020.5
29675 kPa | 1020.5
29690 kPa | 1020.6
29708 kPa | 1020.6
29723 kPa | 1020.4
29738 kPa | 1020.6
29754 kPa | 1020.5
29770 kPa | 1020.5
29788 kPa | 1020.5
29803 kPa | 1020.5
29821 kPa | 1020.5
29837 kPa | 1020.6
29852 kPa | 1020.6
29867 kPa | 1020.6
29886 kPa | 1020.6
29901 kPa | 1020.5
29916 kPa | 1020.5
29935 kPa | 1020.6
29950 kPa | 1020.6
29967 kPa | 1020.7
29982 kPa | 1020.5
29998 kPa | 1020.6
30016 kPa | 1020.5
30032 kPa | 1020.6
30048 kPa | 1020.6
30066 kPa | 1020.6
30082 kPa | 1020.6
30097 kPa | 1020.6
30116 kPa | 1020.6
30131 kPa | 1020.7
30147 kPa | 1020.7
30163 kPa | 1020.7
30182 kPa | 1020.7
30198 kPa | 1020.8
30214 kPa | 1020.7
30232 kPa | 1020.7
30248 kPa | 1020.8
30264 kPa | 1020.7
30280 kPa | 1020.7
30298 kPa | 1020.7
30314 kPa | 1020.9
30330 kPa | 1020.9
30349 kPa | 1020.8
30364 kPa | 1020.8
30384 kPa | 1020.9
30400 kPa | 1020.8
30416 kPa | 1020.9
30431 kPa | 1020.8
30451 kPa | 1020.8
30466 kPa | 1020.9
30482 kPa | 1020.9
30502 kPa | 1020.9
30517 kPa | 1020.9
30536 kPa | 1020.9
30552 kPa | 1020.9
30568 kPa | 1020.9
30587 kPa | 1021
